Reference: ChEMBL document CHEMBL5465560, “Selectivity Literature for EUbOPEN Chemogenomic Library” (2024)
Blank lines part the entries; values can stand above or below the compound they belong to.

Experiments:
[1] = target: T1, Histone-lysine N-methyltransferase NSD3 (Homo sapiens) (UniProt Q9BZ95); assay: Selectivity interaction (Methyltransferase screen (Scintillation proximity assays)) EUB0000255b NSD3
T1 sequence (whole entry): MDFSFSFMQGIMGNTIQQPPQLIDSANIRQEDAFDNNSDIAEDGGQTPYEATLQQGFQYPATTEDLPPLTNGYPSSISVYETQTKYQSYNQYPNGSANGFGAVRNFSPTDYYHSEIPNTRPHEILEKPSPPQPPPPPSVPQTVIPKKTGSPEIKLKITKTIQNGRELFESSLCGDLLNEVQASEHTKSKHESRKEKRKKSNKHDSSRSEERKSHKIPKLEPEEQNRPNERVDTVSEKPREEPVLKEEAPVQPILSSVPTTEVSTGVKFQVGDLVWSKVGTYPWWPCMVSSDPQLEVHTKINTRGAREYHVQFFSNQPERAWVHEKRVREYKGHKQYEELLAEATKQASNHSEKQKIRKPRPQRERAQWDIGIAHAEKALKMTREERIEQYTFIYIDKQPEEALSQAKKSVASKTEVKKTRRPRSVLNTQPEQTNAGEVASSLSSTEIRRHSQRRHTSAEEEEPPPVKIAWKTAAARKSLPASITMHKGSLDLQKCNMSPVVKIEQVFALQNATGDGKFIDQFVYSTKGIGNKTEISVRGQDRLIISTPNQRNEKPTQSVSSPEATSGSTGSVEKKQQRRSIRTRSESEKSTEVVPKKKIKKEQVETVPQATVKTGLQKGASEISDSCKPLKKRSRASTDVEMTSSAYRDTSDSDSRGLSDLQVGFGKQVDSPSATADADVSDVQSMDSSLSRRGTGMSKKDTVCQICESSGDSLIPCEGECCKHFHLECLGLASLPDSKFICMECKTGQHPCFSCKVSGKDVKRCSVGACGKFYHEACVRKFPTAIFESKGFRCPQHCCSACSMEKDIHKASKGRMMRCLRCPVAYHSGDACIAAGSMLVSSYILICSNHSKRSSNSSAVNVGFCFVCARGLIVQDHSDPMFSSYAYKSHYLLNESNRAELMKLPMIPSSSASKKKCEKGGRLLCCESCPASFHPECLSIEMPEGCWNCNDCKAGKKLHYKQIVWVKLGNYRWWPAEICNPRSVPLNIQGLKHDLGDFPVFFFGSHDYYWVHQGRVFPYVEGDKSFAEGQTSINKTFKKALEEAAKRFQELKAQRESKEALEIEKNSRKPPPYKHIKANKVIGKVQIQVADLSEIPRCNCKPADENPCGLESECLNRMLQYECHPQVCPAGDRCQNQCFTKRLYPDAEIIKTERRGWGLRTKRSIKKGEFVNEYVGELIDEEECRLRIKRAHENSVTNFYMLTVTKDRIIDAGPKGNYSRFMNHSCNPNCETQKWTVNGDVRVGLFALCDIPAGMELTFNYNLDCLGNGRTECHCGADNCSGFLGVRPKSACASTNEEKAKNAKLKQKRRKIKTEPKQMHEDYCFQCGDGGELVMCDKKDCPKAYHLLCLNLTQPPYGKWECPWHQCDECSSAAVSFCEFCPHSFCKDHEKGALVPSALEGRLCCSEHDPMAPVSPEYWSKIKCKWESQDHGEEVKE

[2] = target: T2, Serine/threonine-protein kinase Nek1 (Homo sapiens) (UniProt Q96PY6); assay: Selectivity interaction (KinomeScan (DiscoverX)) EUB0000655a NEK1; conditions: at 10 µM
T2 sequence (whole entry): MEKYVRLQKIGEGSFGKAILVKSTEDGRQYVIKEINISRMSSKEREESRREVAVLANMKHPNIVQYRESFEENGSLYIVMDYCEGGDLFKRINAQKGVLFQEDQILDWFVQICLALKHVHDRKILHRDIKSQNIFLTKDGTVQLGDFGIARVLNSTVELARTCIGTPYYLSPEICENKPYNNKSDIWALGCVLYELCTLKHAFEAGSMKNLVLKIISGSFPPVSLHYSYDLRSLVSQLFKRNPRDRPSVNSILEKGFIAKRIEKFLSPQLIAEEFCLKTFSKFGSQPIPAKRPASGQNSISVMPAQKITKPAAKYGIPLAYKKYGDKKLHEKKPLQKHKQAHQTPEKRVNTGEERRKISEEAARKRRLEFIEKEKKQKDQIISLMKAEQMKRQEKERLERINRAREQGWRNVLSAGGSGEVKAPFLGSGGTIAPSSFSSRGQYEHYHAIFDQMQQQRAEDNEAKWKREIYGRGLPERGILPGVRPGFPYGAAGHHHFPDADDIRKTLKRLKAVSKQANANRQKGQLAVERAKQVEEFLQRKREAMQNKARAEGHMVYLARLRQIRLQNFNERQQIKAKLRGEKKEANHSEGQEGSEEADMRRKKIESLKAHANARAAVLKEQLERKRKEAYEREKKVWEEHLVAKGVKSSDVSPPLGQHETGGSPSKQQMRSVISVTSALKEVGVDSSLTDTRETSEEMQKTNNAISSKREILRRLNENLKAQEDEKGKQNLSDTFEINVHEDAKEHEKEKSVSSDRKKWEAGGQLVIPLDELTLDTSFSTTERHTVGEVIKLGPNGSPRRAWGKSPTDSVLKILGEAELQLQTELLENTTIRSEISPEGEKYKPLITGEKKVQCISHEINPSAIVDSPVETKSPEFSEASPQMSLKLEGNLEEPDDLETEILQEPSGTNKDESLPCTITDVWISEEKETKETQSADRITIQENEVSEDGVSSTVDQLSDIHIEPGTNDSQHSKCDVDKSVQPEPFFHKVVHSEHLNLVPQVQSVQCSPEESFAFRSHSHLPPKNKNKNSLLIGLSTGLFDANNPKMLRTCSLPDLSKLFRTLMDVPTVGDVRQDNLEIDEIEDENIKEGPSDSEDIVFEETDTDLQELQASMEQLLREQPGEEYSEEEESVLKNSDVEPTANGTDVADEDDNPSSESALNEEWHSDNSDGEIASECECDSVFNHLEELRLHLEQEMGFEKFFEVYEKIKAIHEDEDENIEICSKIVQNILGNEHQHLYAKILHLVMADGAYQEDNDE

[3] = target: Glycogen synthase kinase-3 beta (Homo sapiens, UniProt P49841); assay: Selectivity interaction (KinomeScan (DiscoverX)) EUB0000618a GSK3B; conditions: at 10 µM
Chain of Glycogen synthase kinase-3 beta (P49841 whole entry, looked up): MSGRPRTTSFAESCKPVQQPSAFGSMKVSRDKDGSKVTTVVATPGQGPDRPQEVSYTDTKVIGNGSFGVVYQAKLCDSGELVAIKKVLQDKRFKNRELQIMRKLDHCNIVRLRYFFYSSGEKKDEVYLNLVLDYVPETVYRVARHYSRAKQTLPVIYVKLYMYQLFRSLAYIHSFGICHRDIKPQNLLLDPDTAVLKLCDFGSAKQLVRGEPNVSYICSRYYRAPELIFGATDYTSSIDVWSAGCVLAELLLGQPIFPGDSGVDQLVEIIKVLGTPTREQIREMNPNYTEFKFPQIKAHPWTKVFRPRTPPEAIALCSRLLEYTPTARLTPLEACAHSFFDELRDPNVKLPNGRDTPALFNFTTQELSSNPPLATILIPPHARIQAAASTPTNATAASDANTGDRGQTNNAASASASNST

[4] = target: Serine/threonine-protein kinase Chk2 (Homo sapiens) (UniProt O96017); assay: Selectivity interaction (SelectScreen profiling (Invitrogen)) EUB0000607a CHEK2; conditions: at 2 µM
Chain of Serine/threonine-protein kinase Chk2 (Homo sapiens) (O96017 whole entry): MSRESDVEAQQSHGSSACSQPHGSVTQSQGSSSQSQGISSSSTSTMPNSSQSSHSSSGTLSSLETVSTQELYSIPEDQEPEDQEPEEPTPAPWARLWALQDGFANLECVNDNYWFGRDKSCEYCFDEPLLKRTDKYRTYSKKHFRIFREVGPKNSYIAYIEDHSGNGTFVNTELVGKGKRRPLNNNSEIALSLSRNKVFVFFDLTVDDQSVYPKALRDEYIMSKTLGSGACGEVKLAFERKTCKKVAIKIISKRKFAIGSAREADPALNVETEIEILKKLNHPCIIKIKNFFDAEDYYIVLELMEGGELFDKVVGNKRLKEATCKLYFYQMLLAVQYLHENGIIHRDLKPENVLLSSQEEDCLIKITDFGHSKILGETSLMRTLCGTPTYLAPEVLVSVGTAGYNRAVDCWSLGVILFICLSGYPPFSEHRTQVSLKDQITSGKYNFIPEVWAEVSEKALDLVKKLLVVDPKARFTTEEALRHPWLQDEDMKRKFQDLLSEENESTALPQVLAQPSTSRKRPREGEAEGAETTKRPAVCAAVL

[5] = target: Mast/stem cell growth factor receptor Kit (Homo sapiens, UniProt P10721); assay: Selectivity interaction (KinomeScan (DiscoverX)) EUB0000607a KIT; conditions: at 10 µM
Chain of Mast/stem cell growth factor receptor Kit (P10721 whole entry, the tested form may be a part): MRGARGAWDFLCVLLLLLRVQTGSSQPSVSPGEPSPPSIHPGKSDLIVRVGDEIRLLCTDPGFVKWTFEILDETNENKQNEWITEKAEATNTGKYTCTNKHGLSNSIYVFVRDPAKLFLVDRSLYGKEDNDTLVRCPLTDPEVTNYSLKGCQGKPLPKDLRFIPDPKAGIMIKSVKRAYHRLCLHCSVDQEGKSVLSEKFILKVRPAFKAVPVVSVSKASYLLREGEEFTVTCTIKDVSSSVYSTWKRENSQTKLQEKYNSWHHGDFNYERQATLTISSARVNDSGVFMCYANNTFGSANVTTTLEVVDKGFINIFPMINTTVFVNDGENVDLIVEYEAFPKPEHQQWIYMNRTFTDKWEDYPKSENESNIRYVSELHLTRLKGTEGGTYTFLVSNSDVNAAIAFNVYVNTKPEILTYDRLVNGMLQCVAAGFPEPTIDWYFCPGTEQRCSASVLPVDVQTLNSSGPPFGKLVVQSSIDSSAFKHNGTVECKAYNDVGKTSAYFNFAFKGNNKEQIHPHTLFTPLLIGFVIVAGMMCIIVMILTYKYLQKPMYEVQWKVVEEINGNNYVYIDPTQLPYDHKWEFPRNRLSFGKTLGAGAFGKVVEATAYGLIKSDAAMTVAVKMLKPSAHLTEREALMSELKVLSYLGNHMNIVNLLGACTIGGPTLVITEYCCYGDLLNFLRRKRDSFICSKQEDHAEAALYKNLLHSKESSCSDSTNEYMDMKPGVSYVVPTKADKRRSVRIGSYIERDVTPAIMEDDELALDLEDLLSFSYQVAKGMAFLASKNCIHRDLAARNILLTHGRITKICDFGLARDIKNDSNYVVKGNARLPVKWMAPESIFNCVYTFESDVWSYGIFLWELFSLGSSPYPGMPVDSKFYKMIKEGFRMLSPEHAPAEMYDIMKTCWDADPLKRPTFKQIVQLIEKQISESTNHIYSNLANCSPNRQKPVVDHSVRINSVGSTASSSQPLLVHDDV

[6] = target: T1, Histone-lysine N-methyltransferase NSD3 (Homo sapiens); assay: Selectivity interaction (PWWP, WD40, and Tudor domain panel (DSLS measurements, literature)) EUB0000270b NSD3
[7] = target: High affinity nerve growth factor receptor (Homo sapiens, UniProt P04629); assay: Selectivity interaction (Kinase panel (Z-LYTE Assay)) EUB0001632a NTRK1; conditions: at 10 µM
Chain of High affinity nerve growth factor receptor (P04629 33-796 limits assumed): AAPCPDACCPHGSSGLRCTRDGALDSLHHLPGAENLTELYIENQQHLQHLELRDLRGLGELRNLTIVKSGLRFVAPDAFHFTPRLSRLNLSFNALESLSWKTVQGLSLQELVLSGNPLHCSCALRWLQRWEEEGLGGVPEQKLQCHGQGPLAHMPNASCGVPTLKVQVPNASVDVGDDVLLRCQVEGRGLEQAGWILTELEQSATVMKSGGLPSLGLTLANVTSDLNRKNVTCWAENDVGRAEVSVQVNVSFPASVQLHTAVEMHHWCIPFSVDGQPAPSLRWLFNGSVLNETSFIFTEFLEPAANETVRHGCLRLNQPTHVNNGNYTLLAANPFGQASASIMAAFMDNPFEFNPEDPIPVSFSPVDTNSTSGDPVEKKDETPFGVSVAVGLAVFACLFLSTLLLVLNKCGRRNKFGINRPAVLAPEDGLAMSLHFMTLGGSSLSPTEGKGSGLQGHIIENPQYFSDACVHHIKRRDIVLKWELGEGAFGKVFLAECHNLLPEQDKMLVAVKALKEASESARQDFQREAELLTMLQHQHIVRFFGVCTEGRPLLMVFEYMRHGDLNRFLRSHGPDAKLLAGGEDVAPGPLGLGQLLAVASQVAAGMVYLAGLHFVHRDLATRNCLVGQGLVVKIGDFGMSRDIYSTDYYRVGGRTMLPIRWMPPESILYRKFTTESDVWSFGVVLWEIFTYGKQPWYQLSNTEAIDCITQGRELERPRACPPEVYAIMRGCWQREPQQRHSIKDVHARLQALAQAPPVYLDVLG

Compound: COCCN1CCC(c2cc(CN(C)C(=O)c3cccc(Oc4ccccc4)c3)ccn2)CC1
% activity ([1]; at 1 µM): > 95%
% activity ([1]; at 10 µM): > 90%

Compound: CN(C)CCOc1ccc(-c2nc(-c3ccncc3)c(-c3ccc4c(c3)CC/C4=N\O)[nH]2)cc1
% of control [2]: 87%

Compound: O[C@H]1CC[C@H](Nc2ncc3nc(Nc4c(F)cc(F)cc4F)n([C@H]4CCOC4)c3n2)CC1
% of control [3]: 95%

Compound: CNC(=O)Nc1ccc(-c2nc(N3CC4CCC(C3)O4)c3cnn(C4CCC5(CC4)OCCO5)c3n2)cc1
% of inhibition [4]: 3%
% of control [5]: 93%

dTagg [6]: 0.7 K
Compound: Cc1cc(CN)cc(C)c1-c1ncn(C)c1-c1cncn1C

% of control [7]: -5.4%
Compound: Cn1cc(-n2cnc3c(NCc4nc5cc(Cl)c(Cl)cc5[nH]4)nc(N4CCOCC4)nc32)cn1
